The record followed here is ChEMBL document CHEMBL1250543, “Potential application of thymidylate kinase in nucleoside analogue activation in Plasmodium falciparum” (Bioorg Med Chem, 2010).

Test [1] has as its system Plasmodium falciparum. Nature of the test: Antimalarial activity against Plasmodium falciparum 3D7 at 100 uM by SYBR green assay. The settings on record: read-out: GI. The class given is functional.
Test [2] has as its system Plasmodium falciparum. The test can be described thus: Antimalarial activity against Plasmodium falciparum 3D7 after 48 hrs by SYBR green assay. The settings on record: 3D7, 48 h. Format: functional, organism-based.

The term EC50 denotes the concentration giving half of the maximal effect. Low values mean higher potency in that assay, high ones lower potency in that assay. As for `Cc1cn([C@@H]2C[C@H](N=[N+]=[N-])[C@@H](CO)O2)c(=O)[nH]c1=O`, the inhibition of growth at 100 µM in the test on Plasmodium falciparum [1] stood at 0%. The EC50 with Plasmodium falciparum [2] was above 100 µM.
Taken in the same sequence, the figures for `COC(=O)[C@@H](C)NP(=O)(OC[C@H]1O[C@@H](n2cc(C)c(=O)[nH]c2=O)C[C@@H]1N=[N+]=[N-])Oc1ccccc1` (stereo partly specified) were 35% and 120 µM.
In the same order, the values of `CCOC(=O)[C@H](NP(=O)(OC[C@H]1O[C@@H](n2cc(C)c(=O)[nH]c2=O)C[C@@H]1N=[N+]=[N-])Oc1ccccc1)C(C)C` (stereo partly specified) are 69% and 80 µM.
For `COC(=O)[C@@H](C)NP(=O)(OC[C@@H]1C=C[C@H](n2cc(C)c(=O)[nH]c2=O)O1)Oc1ccccc1` (stereo partly specified), the inhibition of growth at 100 µM in the test with Plasmodium falciparum [1] was determined as 9%. Besides, the EC50 in the test on Plasmodium falciparum [2] is above 100 µM.
Taken in the same sequence, the figures for `CCOC(=O)[C@H](NP(=O)(OC[C@@H]1C=C[C@H](n2cc(C)c(=O)[nH]c2=O)O1)Oc1ccccc1)C(C)C` (stereo partly specified) were 18% and above 100 µM.
On to `CCOC(=O)[C@H](NP(=O)(OC[C@H]1O[C@@H](n2cnc3c(=O)[nH]c(N)nc32)C[C@@H]1N=[N+]=[N-])Oc1ccccc1)C(C)C` (stereo partly specified), for which the inhibition of growth at 100 µM with Plasmodium falciparum [1] turned out to be 80%. In the test on Plasmodium falciparum [2], the 50% effective concentration (EC50) worked out at 66 µM.
Taken in the same sequence, the figures for `CCOC(=O)[C@H](NP(=O)(OC[C@H]1O[C@H](n2cc(C)c(=O)[nH]c2=O)C[C@@H]1N=[N+]=[N-])Oc1ccccc1)C(C)C` (stereo partly specified) were 78% and 67 µM.
Turning to `Cc1cn([C@H]2C[C@H](N=[N+]=[N-])[C@@H](CO)O2)c(=O)[nH]c1=O` [ZIDOVUDINE], the inhibition of growth at 100 µM with Plasmodium falciparum [1] is 0%. Moreover, in the test on Plasmodium falciparum [2], the EC50 was above 100 µM.
